Tested on: CD1 female mouse brain lipidome
Test: Brain-region lipid levels (HPLC/MS/MS lipidomics) 2 h after single i.p. 3 mg/kg CP 55,940 vs vehicle
Format: in vivo
Description: The Bloomington Institutional Animal Care and Use Committee of Indiana University reviewed and approved the animal procedures. Female mice from the CD1 strain were utilized to match our study examining THC’s effects on the brain lipidome ([Leishman et al., 2018]). Mice were given a single i.p. injection of either 3 mg/kg CP or 1:1:18 cremophor:ethanol:saline vehicle (please refer to the section “3 mg/kg CP Is Relevant for Synthetic Cannabinoid Abuse and Has Stronger Effects on the Female Mouse Brain Lipidome During Adolescence” for a justification of dose and use of female mice). Three different age groups were given injections: PND 35 and PND 50 adolescents, and adult mice (PND 113). At least eight mice in each age group received CP and at least eight received vehicle. Matching the THC study time course ([Leishman et al., 2018]), mice were sacrificed via rapid decapitation 2 h after injection. Brains were immediately removed and flash-frozen in liquid nitrogen, and then stored at -80°C until dissections were performed. Brains were dissected on an ice-cold dissection plate into the following regions: STR, HIPP, CER, THAL, CTX, HYP, MID, and STEM. These abbreviations for these brain areas will be used exclusively when discussing the results generated by these specific dissections. Each dissected area was immediately placed in liquid nitrogen and then stored at -80°C until used for lipid extraction.
Tissue extracts were performed as previously described ([Bradshaw et al., 2006]; [Stuart et al., 2013]; [Raboune et al., 2014]; [Leishman et al., 2016a],[b], [2017], [2018]). First, samples were shock frozen in liquid nitrogen, weighed, and transferred to a centrifuge tube. The mass of the largest sample was multiplied by 50 to determine how many milliliters of HPLC-grade methanol (Fisher, Fair Lawn, NJ, United States) to add. Then, samples were spiked with 500 pmol deuterium-labeled NAGly (d8NAGly; Cayman Chemical, Ann Arbor, MI, United States). Samples were placed on ice in darkness for 2 h then individually homogenized and centrifuged at 19,000 × g for 20 min at 20°C. Supernatants were diluted with HPLC water (purified in house) to make a solution of 75% water, 25% supernatant. Lipids were partially purified on C18 solid phase extraction columns (Agilent, Palo Alto, CA, United States). A series of four elutions with 1.5 mL of 60%, 75%, 85%, and 100% methanol were collected ([Stuart et al., 2013]; [Leishman et al., 2016a],[b], [2018]).
As previously described ([Bradshaw et al., 2006]; [Tan et al., 2006]; [Smoum et al., 2010]; [Stuart et al., 2013]; [Tortoriello et al., 2013]; [Raboune et al., 2014]; [Leishman et al., 2016a],[b], [2017], [2018]), samples were analyzed using an Applied Biosystems API 3000 triple quadrupole mass spectrometer with electrospray ionization (Foster City, CA, United States). Using an Agilent XDB-C18 reversed phase analytical column and optimized mobile phase gradients, 20 μL from each elution were chromatographed. Two Shimadzu 10ADvp pumps (Columbia, MD, United States) provided the pressure for gradient elution. Mobile phase A: 20% methanol, 80% water (v/v) and 1 mM ammonium acetate (Sigma, St. Louis, MO, United States). Mobile phase B: 100% methanol, 1 mM ammonium acetate. Every method run began with 0% mobile phase B, reached 100% mobile phase B flowing at 0.2 mL/min, and gradually returned to 0% mobile phase B.
This screening library will be referred to as the lipidome when discussing data from this study. HPLC/MS/MS data were analyzed using Analyst software (Applied Biosystems) ([Bradshaw et al., 2006]; [Tan et al., 2006]; [Stuart et al., 2013]; [Tortoriello et al., 2013]; [Raboune et al., 2014]; [Leishman et al., 2016a],[b], [2017], [2018]). Chromatograms (Supplementary Figure 3) were generated by determining the retention time of analytes from the analytical column with a [M-1] or [M+1] parent peak and a fragmentation peak corresponding to the programmed values. […]

[1] = adult brainstem, 3mg/kg CP 55,940
[2] = adult cortex, 3 mg/kg CP 55,940, p .004
[3] = adult cortex, 3 mg/kg CP 55,940, p .008
[4] = adult cortex, 3 mg/kg CP 55,940, p .028
[5] = adult cortex, 3 mg/kg CP 55,940, p .055
[6] = adult cortex, 3 mg/kg CP 55,940, p .057
[7] = adult cortex, 3 mg/kg CP 55,940, p .077
[8] = adult cortex, 3 mg/kg CP 55,940, p .086
[9] = adult cortex, 3 mg/kg CP 55,940, p .090
[10] = adult female mice, brainstem, 3mg/kg CP 55,940

## CCCCCCC(C)(C)c1ccc([C@@H]2C[C@H](O)CC[C@H]2CCCO)c(O)c1 [CP 55,940]
[1]
  N-docosahexaenoyl alanine level, Mean: 3.28E-13
  N-docosahexaenoyl ethanolamine level, Mean: 2.85E-11
  N-docosahexaenoyl glycine level, Mean: 5.52E-13
  N-docosahexaenoyl phenylalanine level, Mean: 3.64E-14
  N-linoleoyl GABA level, Mean: 6.22E-12
  N-linoleoyl alanine level, Mean: 2E-13
  N-linoleoyl ethanolamine level, Mean: 8.37E-12
  N-linoleoyl glycine level, Mean: 1.41E-13
  N-linoleoyl methionine level, Mean: BDL
  N-oleoyl GABA level, Mean: 1.65E-11
  N-oleoyl alanine level, Mean: 3.26E-12
  N-oleoyl dopamine level, Mean: BDL
  N-oleoyl ethanolamine level, Mean: 2.44E-10
  N-oleoyl ethanolamine, Direction (relative to Veh): ↓
  N-oleoyl ethanolamine, Magnitude (x Veh level): 0.76 x Veh level
  N-oleoyl glycine level, Mean: 2.1E-12
  N-oleoyl leucine level, Mean: 2E-12
  N-oleoyl methionine level, Mean: 4.11E-13
  N-oleoyl phenylalanine level, Mean: 4.28E-13
  N-palmitoyl GABA level, Mean: 1.95E-11
  N-palmitoyl alanine level, Mean: 3.16E-12
  N-palmitoyl ethanolamine level, Mean: 8.74E-11
  N-palmitoyl glycine level, Mean: 2.79E-12
  N-palmitoyl leucine level, Mean: 3.05E-12
  N-palmitoyl leucine, Direction (relative to Veh): ↑
  N-palmitoyl leucine, Magnitude (x Veh level): 1.30 x Veh level
  N-palmitoyl methionine level, Mean: 5.07E-12
  N-palmitoyl phenylalanine level, Mean: 2.38E-13
  N-palmitoyl valine Direction (relative to Veh): ↑
  N-palmitoyl valine Magnitude (x Veh level): 1.43 x Veh level
  N-stearoyl GABA level, Mean: 1.37E-11
  N-stearoyl alanine level, Mean: 5.4E-12
  N-stearoyl ethanolamine level, Mean: 3.01E-11
  N-stearoyl glycine level, Mean: 4.95E-12
  N-stearoyl leucine level, Mean: 1.96E-12
  N-stearoyl methionine level, Mean: 4.69E-13
  N-stearoyl phenylalanine level, Mean: 1.53E-13
  Oleic acid, Direction (relative to Veh): ↓
  Oleic acid, Magnitude (x Veh level): 0.80 x Veh level
  PGE2 Direction (relative to Veh): ↓
  PGE2 Magnitude (x Veh level): 0.87 x Veh level
Adult cortex, 3mg/kg CP 55,940
  2-arachidonoyl glycerol level, Mean: 3.28E-09
  2-linoleoyl glycerol level, Mean: 1.48E-10
  2-oleoyl glycerol level, Mean: 1.56E-09
  2-palmitoyl glycerol level, Mean: 8.13E-11
  6-ketoPGF1α level, Mean: 1.5E-11
  11-OH-THC level, Mean: BDL
  11-nor-9-carboxyTHC level, Mean: BDL
  Arachidonic acid level, Mean: 9.03E-10
  Cannabidiol level, Mean: BDL
  Linoleic acid level, Mean: 5.34E-10
  N- stearoyl valine level, Mean: 2.51E-14
  N-arachidonoyl proline level, Mean: BDL
  N-arachidonoyl taurine level, Mean: 8.95E-11
  N-arachidonoyl tryptophan level, Mean: BDL
  N-arachidonoyl tyrosine level, Mean: 6.06E-13
  N-docosahexaenoyl proline level, Mean: BDL
  N-docosahexaenoyl tryptophan level, Mean: BDL
  N-docosahexaenoyl tyrosine level, Mean: 3.81E-13
  N-linoleoyl proline level, Mean: BDL
  N-linoleoyl serine level, Mean: 1.53E-11
  N-linoleoyl tryptophan level, Mean: BDL
  N-linoleoyl tyrosine level, Mean: BDL
  N-nervonoyl valine level, Mean: BDL
  N-oleoyl proline level, Mean: BDL
  N-oleoyl serine level, Mean: 8.25E-11
  N-oleoyl tryptophan level, Mean: BDL
  N-oleoyl tyrosine level, Mean: 3.46E-13
  N-oleoyl valine level, Mean: 1.3E-14
  N-palmitoyl proline level, Mean: BDL
  N-palmitoyl serine level, Mean: 6.45E-12
  N-palmitoyl tryptophan level, Mean: BDL
  N-palmitoyl tyrosine level, Mean: 7.95E-13
  N-palmitoyl valine level, Mean: 1.13E-13
  N-stearoyl proline level, Mean: BDL
  N-stearoyl serine level, Mean: 9.84E-12
  N-stearoyl tryptophan level, Mean: BDL
  N-stearoyl tyrosine level, Mean: 1.21E-13
  Oleic acid level, Mean: 4.6E-10
  PGE2 level, Mean: 3.08E-10
  PhosphoLEA level, Mean: 1.8E-12
  THC level, Mean: BDL
[2]
  6-ketoPGF1α Direction (relative to Veh): ↓
  6-ketoPGF1α Magnitude (x Veh level): 0.68
[3]
  N-palmitoyl valine Direction (relative to Veh): ↑
  N-palmitoyl valine Magnitude (x Veh level): 1.49
[4]
  PGF2α Direction (relative to Veh): ↓
  PGF2α Magnitude (x Veh level): 0.89
[5]
  N-linoleoyl GABA Direction (relative to Veh): ↓
  N-linoleoyl GABA Magnitude (x Veh level): 0.86
[6]
  N-stearoyl phenylalanine, Direction (relative to Veh): ↓
  N-stearoyl phenylalanine, Magnitude (x Veh level): 0.66
[7]
  Arachidonic acid, Direction (relative to Veh): ↓
  Arachidonic acid, Magnitude (x Veh level): 0.86
[8]
  N-arachidonoyl taurine Direction (relative to Veh): ↓
  N-arachidonoyl taurine Magnitude (x Veh level): 0.93
[9]
  2-linoleoyl glycerol Direction (relative to Veh): ↓
  2-linoleoyl glycerol Magnitude (x Veh level): 0.76
[10]
  2-arachidonoyl glycerol level, Mean: 4.32E-09
  2-linoleoyl glycerol level, Mean: 2.54E-10
  2-oleoyl glycerol level, Mean: 3.17E-09
  2-palmitoyl glycerol level, Mean: 3.83E-11
